From US20220153732A1, “PROTEIN SECRETION INHIBITORS” (KEZAR LIFE SCIENCES, priority 2019, published 2022) come the findings set out here.

Holding throughout (assay type): cell-based
The subject of assay [1] is PD1-ss+10aa/Gaussia Luciferase. Description: Dox-Induced PD1-ss-Gluc Assay. A digest of the protocol:
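Stable cell line carrying PD1-ss+10aa/Gaussia luciferase cDNA under T-REx (doxycycline-inducible) control, plated the day before assay. Compound dilutions in DMSO/media containing doxycycline added and incubated at 37° C, 5% CO2. Undefined stereocentres: data refer to stereoisomer mixtures.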

In assay [2] the test system is IL-2-FL/Gaussia Luciferase. Description: Dox Induced IL2-FL-Gluc Assay. The method in brief: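 Stable T-REx cell line expressing doxycycline-inducible IL-2-FL/Gaussia luciferase cDNA, plated the day before assay. Compound dilutions in DMSO/media containing doxycycline added and incubated at 37° C., 5% CO2. Unspecified stereochemistry means data refer to a stereoisomer mixture.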

Assay [3] relates to human multiple myeloma cell line NCI-H929. Put plainly: H929 Cell Viability Assay. To be noted: 48 hr, NCI-H929 cells, Celltiter-Glo, read-out: 48 hr H929 Viability Celltiter-Glo: Mean EC50. As for the experimental part: Plates were incubated at 37° C., 5% CO2 for 48 hours. After 48 hours, Celltiter-Glo® (Promega) was added to each well and luciferase signal was quantified using Tecan Infinite M1000 Pro for cell viability determination.
For chemical structures that include one or more stereoisomers, but are illustrated without indicating stereochemistry, the assay data refers to a mixture of stereoisomers.

The subject of assay [4] is TNFα-FL/Gaussia Luciferase. Description: Dox Induced TNFα-FL-Gluc Assay. A digest of the protocol: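 A stable T-REx cell line carrying doxycycline-inducible TNFα-FL/Gaussia luciferase was plated the day before assay. Compound dilutions in DMSO/media containing doxycycline were then added and incubated at 37° C, 5% CO2.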
The subject of assay [5] is HER3-ss+4aa/Gaussia Luciferase. Put plainly: Dox-Induced Her3-ss-Gluc Assay. A digest of the protocol: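 Stable T-REx cell line carrying a doxycycline-regulated HER3-ss+4aa/Gaussia luciferase insert, plated the day before assay. Compound dilutions in DMSO/media with doxycycline added, then incubated at 37° C., 5% CO2. Stereoisomer mixtures tested where stereochemistry is not drawn.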

Assay [6] deals with human multiple myeloma cell line U266B1. Description: U266 Cell Viability Assay. To be noted: U-266, 48 hr, U266B1 cells, Celltiter-Glo, read-out: 48 hr U266 Viability Celltiter-Glo: Mean EC50. The method in brief:
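U266B1 myeloma cells treated with compound dilutions in DMSO/media for 48 h at 37 °C, 5% CO2. Viability read by CellTiter-Glo luminescence. Stereochemically undefined structures were tested as stereoisomer mixtures.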
A general note: Cellular ATP, detected with luciferase, serves as a proxy for viable cell number.

The mark [7] stands for this setting: 24 hr doxycycline induction, 293FRT/TO cells, Gaussia luciferase signal; read-out: 24 hr Dox Inducible PD1ssGluc 293FRT/TO: Mean IC50.
Setting [8] is: 24 hr doxycycline induction, 293FRT/TO cells, Gaussia luciferase signal; read-out: 24 hr Dox Inducible IL2FLGIuc 293FRT/TO: Mean IC50.
Setting [9] is: 24 hr doxycycline induction, 293FRT/TO cells, Gaussia luciferase signal; read-out: 24 hr Dox Inducible TNFaFLGluc 293FRT/TO: Mean IC50.
Where [10] appears, read: 24 hr doxycycline induction, 293FRT/TO cells, Gaussia luciferase signal; read-out: 24 hr Dox Inducible Her3(ss + 4)Gluc 293FRT/TO: Mean IC50.
The mark [11] stands for this setting: 24 hr, doxycycline-induced, 293FRT/TO cells; read-out: 24 hr Dox Inducible PD1ssGluc 293FRT/TO: Mean IC50.
Setting [12] is: 24 hr, doxycycline-induced, 293FRT/TO cells; read-out: 24 hr Dox Inducible IL2FLGIuc 293FRT/TO: Mean IC50.
[13] abbreviates: 24 hr, doxycycline-induced, 293FRT/TO cells; read-out: 24 hr Dox Inducible TNFaFLGluc 293FRT/TO: Mean IC50.
The mark [14] stands for this setting: 24 hr, doxycycline-induced, 293FRT/TO cells; read-out: 24 hr Dox Inducible Her3(ss + 4)Gluc 293FRT/TO: Mean IC50.

SMILES strings stand for the structures. Read-outs that look alike come from different tables or passages of the source. A value given as a limit tells only on which side of the number the result lay.

By EC50 is commonly meant the midpoint of the concentration-response curve. As for `CC(C)OC(C)(C)c1csc(NC(=O)c2cccn2Cc2c(F)cncc2F)n1` [Compound A256, 1-((3,5-difluoropyridin-4-yl)methyl)-N-(4-(2-isopropoxypropan-2-yl)thiazol-2-yl)-1H-pyrrole-2-carboxamide], the IC50 in assay [1] (setting [7]) is 2.15 µM; in assay [2] (setting [8]) it was 2.87 µM; in assay [4] (setting [9]), greater than 25 µM; in assay [5] (setting [10]), 4.04 µM. The concentration giving a half-maximal response (EC50) in assay [3] and in assay [6] was greater than 25 µM throughout.

Consider `O=C(Nc1nc([C@H]2C[C@H](Oc3ccccc3)C2)cs1)c1cccn1Cc1ccncc1` [Compound A329], for which the IC50 in assay [1] (setting [11]) is 0.202 µM; in assay [2] (setting [12]) it was 0.739 µM; in assay [4] (setting [13]), 3.16 µM; in assay [5] (setting [14]), 0.342 µM. Further, the EC50 in assay [3] is 22.8 µM; in assay [6], greater than 25 µM.

In the case of `O=C(Nc1nc(/C=C/c2ccccc2)cs1)c1cccn1Cc1ccncc1` [Compound A14, 1-(pyridin-4-ylmethyl)-N-(4-styrylthiazol-2-yl)-1H-pyrrole-2-carboxamide], the IC50 in assay [1] (setting [7]) is 0.153 µM; in assay [2] (setting [8]), 1.05 µM; in assay [4] (setting [9]), 5.11 µM; in assay [5] (setting [10]), 0.568 µM. Besides, the EC50 in assay [3] and in assay [6] was greater than 25 µM throughout.

For the compound `O=C(Nc1nc([C@@H]2CCC[C@@H](c3ccccc3)C2)cs1)c1cccn1Cc1ccncc1` [Compound A271], the IC50 is 0.316 µM in assay [1] (setting [7]), 0.951 µM in assay [2] (setting [8]), 2.87 µM in assay [4] (setting [9]) and 0.912 µM in assay [5] (setting [10]). The EC50 in assay [3] was 15.5 µM; in assay [6], greater than 25 µM.

Regarding `CC(C)OCc1csc(NC(=O)c2cccn2Cc2ccncc2)n1` [Compound A59, N-(4-(isopropoxymethyl)thiazol-2-yl)-1-(pyridin-4-ylmethyl)-1H-pyrrole-2-carboxamide], the IC50 in assay [1] (setting [7]) turned out to be 1.51 µM; in assay [2] (setting [8]), 3.62 µM; in assay [4] (setting [9]), 16.6 µM; in assay [5] (setting [10]) it was 11.9 µM. The EC50 in assay [3] and in assay [6] was greater than 25 µM in each case.

Consider `O=C(Nc1nc(/C=C/C2CCOCC2)cs1)c1cccn1Cc1ccncc1` [Compound A153, 1-(pyridin-4-ylmethyl)-N-(4-(2-(tetrahydro-2H-pyran-4-yl)vinyl)thiazol-2-yl)-1H-pyrrole-2-carboxamide], for which the IC50 in assay [1] (setting [7]) is 0.902 µM; in assay [2] (setting [8]), 4.07 µM; in assay [4] (setting [9]) it was greater than 25 µM; in assay [5] (setting [10]), 1.55 µM. The EC50 in assay [3] and in assay [6] was greater than 25 µM throughout.

As for `O=C(Nc1nc(C2=Cc3ccccc3C2)cs1)c1cccn1Cc1ccncc1` [Compound A242, N-(4-(1H-inden-2-yl)thiazol-2-yl)-1-(pyridin-4-ylmethyl)-1H-pyrrole-2-carboxamide], the IC50 in assay [1] (setting [7]) was 0.281 µM; in assay [2] (setting [8]), greater than 25 µM; in assay [4] (setting [9]) it was greater than 25 µM; in assay [5] (setting [10]), 0.596 µM. The EC50 in assay [3] and in assay [6] was greater than 25 µM throughout.

`CC(=O)NCCc1nc(NC(=O)c2cccn2Cc2ccncc2)sc1C` [Compound B22, N-(4-(2-acetamidoethyl)-5-methylthiazol-2-yl)-1-(pyridin-4-ylmethyl)-1H-pyrrole-2-carboxamide]: the IC50 in assay [1] (setting [11]), in assay [2] (setting [12]), in assay [4] (setting [13]) and in assay [5] (setting [14]) was greater than 25 µM throughout. Besides, the EC50 in assay [3] and in assay [6] was greater than 25 µM each time.

On to `CC(C)OC(C)(C)c1csc(NC(=O)c2cccn2Cc2ccncc2NCc2ccccc2)n1` [Compound A212, 1-((3-(benzylamino)pyridin-4-yl)methyl)-N-(4-(2-isopropoxypropan-2-yl)thiazol-2-yl)-1H-pyrrole-2-carboxamide], for which the IC50 was 4.74 µM in assay [1] (setting [7]), 4.57 µM in assay [2] (setting [8]), greater than 25 µM in assay [4] (setting [9]) and 4.2 µM in assay [5] (setting [10]). The EC50 was 2.99 µM in assay [3] and 3.76 µM in assay [6].

For `O=C(Nc1nc(/C=C/c2ccc3ncccc3c2)cs1)c1cccn1Cc1ccncc1` [Compound A237], the IC50 is 0.288 µM in assay [1] (setting [7]), 1.87 µM in assay [2] (setting [8]), greater than 25 µM in assay [4] (setting [9]) and 1.12 µM in assay [5] (setting [10]). The EC50 in assay [3] is 18.7 µM; in assay [6], greater than 25 µM.

On to `COc1ccc(O[C@H]2C[C@@H](c3csc(NC(=O)c4cccn4Cc4ccncc4)n3)C2)nc1` [Compound A309], for which the IC50 in assay [1] (setting [11]) amounted to 0.024 µM; in assay [2] (setting [12]) it was 0.199 µM; in assay [4] (setting [13]), 0.721 µM; in assay [5] (setting [14]) it was 0.071 µM. Moreover, the EC50 came to 6.11 µM in assay [3] and 14.8 µM in assay [6].

`CC(C)OC(C)(C)c1csc(NC(=O)c2ccccc2Cc2ccncc2)n1` [Compound A280, N-(4-(2-isopropoxypropan-2-yl)thiazol-2-yl)-2-(pyridin-4-ylmethyl)benzamide]: the IC50 in assay [1] (setting [7]) is 12.7 µM; in assay [2] (setting [8]), greater than 25 µM; in assay [4] (setting [9]) it was greater than 25 µM; in assay [5] (setting [10]), greater than 25 µM. Further, the half-maximal effective concentration (EC50) in assay [3] and in assay [6] was greater than 25 µM each time.

As for `CC(C)(OCC(F)(F)F)c1csc(NC(=O)c2cccn2Cc2ccncc2)n1` [Compound A15, 1-(pyridin-4-ylmethyl)-N-(4-(2-(2,2,2-trifluoroethoxy)propan-2-yl)thiazol-2-yl)-1H-pyrrole-2-carboxamide], the IC50 in assay [1] (setting [7]) came out at 0.169 µM; in assay [2] (setting [8]), 0.11 µM; in assay [4] (setting [9]) it was 5.43 µM; in assay [5] (setting [10]), 0.318 µM. For the same compound, the EC50 in assay [3] was 16.6 µM; in assay [6], greater than 25 µM.

With `CC(C)(C)[C@H]1C[C@@H]1NC(=O)c1cccn1Cc1ccncc1` [Compound B23, N-((1S,2R)-2-(tert-butyl)cyclopropyl)-1-(pyridin-4-ylmethyl)-1H-pyrrole-2-carboxamide], the IC50 in assay [1] (setting [11]), in assay [2] (setting [12]), in assay [4] (setting [13]) and in assay [5] (setting [14]) was greater than 25 µM throughout. In addition, the EC50 in assay [3] and in assay [6] was greater than 25 µM in each case.

As to `COc1cnc(/C=C/c2csc(NC(=O)c3cccn3Cc3ccncc3)n2)c(F)c1` [Compound A299], the IC50 is 0.007 µM in assay [1] (setting [11]), 0.219 µM in assay [2] (setting [12]), greater than 25 µM in assay [4] (setting [13]) and 0.214 µM in assay [5] (setting [14]). Moreover, the EC50 in assay [3] and in assay [6] was greater than 25 µM in each case.

For `Cc1cnccc1Cn1cccc1C(=O)Nc1nc(C(C)(C)OC(C)C)cs1` [Compound A24, N-(4-(2-isopropoxypropan-2-yl)thiazol-2-yl)-1-((3-methylpyridin-4-yl)methyl)-1H-pyrrole-2-carboxamide], the IC50 in assay [1] (setting [7]) was determined as 0.303 µM; in assay [2] (setting [8]), 0.477 µM; in assay [4] (setting [9]), 11.7 µM; in assay [5] (setting [10]), 0.619 µM. Further, the EC50 in assay [3] and in assay [6] was greater than 25 µM throughout.

Take `CC(C)(C)[Si](O[C@H]1C[C@H](c2csc(NC(=O)c3cccn3Cc3ccncc3)n2)N(c2ccccc2)C1)(c1ccccc1)c1ccccc1` [Compound A323]: the IC50 in assay [1] (read-out: 24 hr Dox Inducible PD1ssGluc 293FRT/TO: Mean IC50; 24 hr, doxycycline-induced, 293FRT/TO cells) is 0.007 µM; in assay [2] (read-out: 24 hr Dox Inducible IL2FLGIuc 293FRT/TO: Mean IC50; 24 hr, doxycycline-induced, 293FRT/TO cells), 0.01 µM; in assay [4] (read-out: 24 hr Dox Inducible TNFaFLGluc 293FRT/TO: Mean IC50; 24 hr, doxycycline-induced, 293FRT/TO cells), 0.011 µM; in assay [5] (read-out: 24 hr Dox Inducible Her3(ss + 4)Gluc 293FRT/TO: Mean IC50; 24 hr, doxycycline-induced, 293FRT/TO cells) it was 0.013 µM. The EC50 was 0.118 µM in assay [3] and greater than 25 µM in assay [6].
